Data: PubChem BioAssay (NCI)
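Tested at 5 concentrations; 48 h exposure; 96-well plates; endpoints linearly interpolated, else capped at highest concentration. Abbreviation: GI50, concentration required for 50% inhibition of growth. The concentration for full growth arrest is given as TGI.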

Experiments:
Assay in all cases: inhibition of tumour cell growth, NCI panel, 48 h
DU-145 prostate = test system: DU-145 prostate
U251 CNS = test system: U251 CNS
A498 renal = test system: A498 renal
HS 578T breast = test system: HS 578T breast
UACC-257 melanoma = test system: UACC-257 melanoma
SF-268 CNS = test system: SF-268 CNS
SW-620 colon = test system: SW-620 colon
SK-MEL-2 melanoma = test system: SK-MEL-2 melanoma
PC-3 prostate = test system: PC-3 prostate
K-562 leukemia = test system: K-562 leukemia
HT29 colon = test system: HT29 colon
TK-10 renal = test system: TK-10 renal
BT-549 breast = test system: BT-549 breast
MDA-MB-231 breast = test system: MDA-MB-231 breast
HCT-15 colon = test system: HCT-15 colon
HCT-116 colon = test system: HCT-116 colon
ACHN renal = test system: ACHN renal
MOLT-4 leukemia = test system: MOLT-4 leukemia
CCRF-CEM leukemia = test system: CCRF-CEM leukemia
SF-539 CNS = test system: SF-539 CNS
RPMI-8226 leukemia = test system: RPMI-8226 leukemia
SNB-75 CNS = test system: SNB-75 CNS
786-0 renal = test system: 786-0 renal
M14 melanoma = test system: M14 melanoma
SF-295 CNS = test system: SF-295 CNS
MCF7 breast = test system: MCF7 breast
MDA-MB-468 breast = test system: MDA-MB-468 breast
NCI-H460 lung = test system: NCI-H460 lung
MALME-3M melanoma = test system: MALME-3M melanoma
HL-60(TB) leukemia = test system: HL-60(TB) leukemia
EKVX NSCLC = test system: EKVX NSCLC
A549 NSCLC = test system: A549 NSCLC
LOX IMVI melanoma = test system: LOX IMVI melanoma
HCC-2998 colon = test system: HCC-2998 colon
OVCAR-4 ovarian = test system: OVCAR-4 ovarian
SNB-19 CNS = test system: SNB-19 CNS
RXF 393 renal = test system: RXF 393 renal
UACC-62 melanoma = test system: UACC-62 melanoma
MDA-MB-435 = test system: MDA-MB-435
NCI-H522 lung = test system: NCI-H522 lung
COLO 205 colon = test system: COLO 205 colon
OVCAR-8 ovarian = test system: OVCAR-8 ovarian
SK-OV-3 ovarian = test system: SK-OV-3 ovarian
NCI-H23 lung = test system: NCI-H23 lung
NCI-H226 lung = test system: NCI-H226 lung
IGROV1 ovarian = test system: IGROV1 ovarian
T-47D breast = test system: T-47D breast
SK-MEL-28 melanoma = test system: SK-MEL-28 melanoma
OVCAR-5 ovarian = test system: OVCAR-5 ovarian
KM12 colon = test system: KM12 colon
HOP-62 NSCLC = test system: HOP-62 NSCLC
SR leukemia = test system: SR leukemia
CAKI-1 renal = test system: CAKI-1 renal
HOP-92 NSCLC = test system: HOP-92 NSCLC
SN12C renal = test system: SN12C renal
OVCAR-3 ovarian = test system: OVCAR-3 ovarian
UO-31 renal = test system: UO-31 renal
SK-MEL-5 melanoma = test system: SK-MEL-5 melanoma

With N#CC1=C(c2cccs2)Nc2c(c(-c3ccccc3)nn2-c2ccccc2)C12C(=O)Nc1ccc(Cl)cc12 (stereo unspecified) the GI50 (DU-145 prostate) was 13.9 µM, the TGI (DU-145 prostate) was 30.3 µM and the GI50 (U251 CNS) was 3.88 µM. It also gave a TGI (U251 CNS) of 14.4 µM, a GI50 (A498 renal) of 16.8 µM and a TGI (A498 renal) of 31.2 µM. The GI50 (HS 578T breast) was 3.22 µM, the TGI (HS 578T breast) was 18.6 µM and the GI50 (UACC-257 melanoma) was 12.9 µM. The TGI (UACC-257 melanoma) was 25.8 µM, the GI50 (SF-268 CNS) was 3.52 µM and the TGI (SF-268 CNS) was 19 µM. For the same compound, the GI50 (SW-620 colon) was 4.56 µM, the TGI (SW-620 colon) was 16.6 µM and the GI50 (SK-MEL-2 melanoma) was 3.97 µM. For the same compound, the TGI (SK-MEL-2 melanoma) was 14.6 µM, the GI50 (PC-3 prostate) was 3.18 µM and the TGI (PC-3 prostate) was 15.2 µM. It also gave a GI50 (K-562 leukemia) of 4.46 µM, a TGI (K-562 leukemia) of 34.1 µM and a GI50 (HT29 colon) of 4.82 µM. The TGI (HT29 colon) was 17.1 µM, the GI50 (TK-10 renal) was 5.81 µM and the TGI (TK-10 renal) was 20.5 µM. For the same compound, the GI50 (BT-549 breast) was 3.02 µM, the TGI (BT-549 breast) was 13.1 µM and the GI50 (MDA-MB-231 breast) was 4.52 µM. It also gave a TGI (MDA-MB-231 breast) of 16.9 µM, a GI50 (HCT-15 colon) of 3.74 µM and a TGI (HCT-15 colon) of 14.1 µM. For the same compound, the GI50 (HCT-116 colon) was 3.95 µM, the TGI (HCT-116 colon) was 16.3 µM and the GI50 (ACHN renal) was 4.05 µM. For the same compound, the TGI (ACHN renal) was 14.8 µM, the GI50 (MOLT-4 leukemia) was 4.95 µM and the TGI (MOLT-4 leukemia) was 23.4 µM. It also gave a GI50 (CCRF-CEM leukemia) of 3.35 µM, a TGI (CCRF-CEM leukemia) of 20.7 µM and a GI50 (SF-539 CNS) of 4.77 µM. For the same compound, the TGI (SF-539 CNS) was 17 µM, the GI50 (RPMI-8226 leukemia) was 4.3 µM and the TGI (RPMI-8226 leukemia) was 27.5 µM. It also gave a GI50 (SNB-75 CNS) of 2.6 µM, a TGI (SNB-75 CNS) of 13 µM and a GI50 (786-0 renal) of 6.43 µM. For the same compound, the TGI (786-0 renal) was 20.6 µM, the GI50 (M14 melanoma) was 4.94 µM and the TGI (M14 melanoma) was 18.4 µM. It also gave a GI50 (SF-295 CNS) of 3.74 µM, a TGI (SF-295 CNS) of 15.9 µM and a GI50 (MCF7 breast) of 4.95 µM. It also gave a TGI (MCF7 breast) of 19.4 µM, a GI50 (MDA-MB-468 breast) of 4.45 µM and a TGI (MDA-MB-468 breast) of 16.6 µM. The GI50 (NCI-H460 lung) was 4.07 µM, the TGI (NCI-H460 lung) was 14.1 µM and the GI50 (MALME-3M melanoma) was 14.3 µM. For the same compound, the TGI (MALME-3M melanoma) was 27.4 µM, the GI50 (HL-60(TB) leukemia) was 3.51 µM and the TGI (HL-60(TB) leukemia) was 11.7 µM. The GI50 (EKVX NSCLC) was 4.33 µM, the TGI (EKVX NSCLC) was 18 µM and the GI50 (A549 NSCLC) was 4.12 µM. For the same compound, the TGI (A549 NSCLC) was 15.9 µM, the GI50 (LOX IMVI melanoma) was 6.46 µM and the TGI (LOX IMVI melanoma) was 20.4 µM. The GI50 (HCC-2998 colon) was 7.13 µM, the TGI (HCC-2998 colon) was 19.8 µM and the GI50 (OVCAR-4 ovarian) was 4.77 µM. The TGI (OVCAR-4 ovarian) was 21.1 µM, the GI50 (SNB-19 CNS) was 3.12 µM and the TGI (SNB-19 CNS) was 14.2 µM. For the same compound, the GI50 (RXF 393 renal) was 3.14 µM, the TGI (RXF 393 renal) was 13.3 µM and the GI50 (UACC-62 melanoma) was 4.13 µM. For the same compound, the TGI (UACC-62 melanoma) was 16.9 µM, the GI50 (MDA-MB-435) was 11.1 µM and the TGI (MDA-MB-435) was 23.9 µM. It also gave a GI50 (NCI-H522 lung) of 2.6 µM, a TGI (NCI-H522 lung) of 9.87 µM and a GI50 (COLO 205 colon) of 14.3 µM. It also gave a TGI (COLO 205 colon) of 29.5 µM, a GI50 (OVCAR-8 ovarian) of 4.92 µM and a TGI (OVCAR-8 ovarian) of 17.9 µM. The GI50 (SK-OV-3 ovarian) was 10.6 µM, the TGI (SK-OV-3 ovarian) was 23.6 µM and the GI50 (NCI-H23 lung) was 5.57 µM. The TGI (NCI-H23 lung) was 18.2 µM, the GI50 (NCI-H226 lung) was 11.6 µM and the TGI (NCI-H226 lung) was 28.2 µM. The GI50 (IGROV1 ovarian) was 4.93 µM, the TGI (IGROV1 ovarian) was 17.7 µM and the GI50 (T-47D breast) was 5.84 µM. For the same compound, the TGI (T-47D breast) was 33.8 µM, the GI50 (SK-MEL-28 melanoma) was 11.1 µM and the TGI (SK-MEL-28 melanoma) was 23.2 µM. The GI50 (OVCAR-5 ovarian) was 7.31 µM, the TGI (OVCAR-5 ovarian) was 20.9 µM and the GI50 (KM12 colon) was 3.66 µM. The TGI (KM12 colon) was 13.6 µM, the GI50 (HOP-62 NSCLC) was 7.02 µM and the TGI (HOP-62 NSCLC) was 21.4 µM. It also gave a GI50 (SR leukemia) of 4.93 µM, a TGI (SR leukemia) of 36.3 µM and a GI50 (CAKI-1 renal) of 5.26 µM. It also gave a TGI (CAKI-1 renal) of 18.6 µM, a GI50 (HOP-92 NSCLC) of 2.47 µM and a TGI (HOP-92 NSCLC) of 7.94 µM. It also gave a GI50 (SN12C renal) of 4.46 µM, a TGI (SN12C renal) of 16.8 µM and a GI50 (OVCAR-3 ovarian) of 6.88 µM. For the same compound, the TGI (OVCAR-3 ovarian) was 19.7 µM, the GI50 (UO-31 renal) was 2.54 µM and the TGI (UO-31 renal) was 12.2 µM. It also gave a GI50 (SK-MEL-5 melanoma) of 10.8 µM and a TGI (SK-MEL-5 melanoma) of 23.1 µM.
